Assays:
[1] = cited from earlier work
Avastin = experiment: Release of active Avastin from microparticles with excipients, activity by ELISA; details: excipients added during fabrication
Description: FIGS. 27A-27F show the release of Avastin from microparticles. FIG. 27A is a heat map depicting the sum of the percentage of Avastin inside the microparticles and Avastin released from the microparticles. Data is normalized to amount of Avastin filled into microparticles. […] Avastin activity was measured using an ELISA. The excipients that were studied were bovine serum albumin (BSA) and sorbitol: monosodium glutamate (MSG): magnesium chloride (MgCl2). FIGS. 27B-27I show plots of the release kinetics of the microparticle formulations of FIG. 27A. The release kinetics depicted in FIG. 27B are for a microparticle with 3 μg BSA as an excipient. The release kinetics depicted in FIG. 27C are for a microparticle with 2 μg BSA as an excipient. […]
Due to concern about the thermal stress potential involved when heating up biotherapeutics which may be desirable as a payload of the microparticles described herein, the temperature of the microparticles was measured during the sealing process to determine the peak temperature and duration of exposure to elevated temperature to quantify the thermal stress that the protein might experience (FIG. 25). […] To determine if these temperatures would damage encapsulated biotherapeutics, the stability of horseradish peroxidase (HRP), was assessed after every step in the formulation process (dispensing, drying, and sealing). […]

CC(C)Cn1cnc2c(N)nc3ccccc3c21 [imiquimod]
solubility in water [1]: approximately 2 μg/mL

Avastin: a fragile biotherapeutic used to treat certain cancers
Avastin remaining after release (Avastin): significant amounts
